Patent publication US20240067651A1 (Biohaven Therapeutics Ltd., priority 2019, published 2024)

What was measured:
[1] = Caco-2 Permeability Assay; type: in vitro ADME, human; details: human
From the text: The compounds of the invention may be tested for biological activity as MPO inhibitors by methods known to those skilled in the art. In addition, methods such as, for example, a Caco-2 assay, may be used to test the bioavailability of the compounds of the invention. A description of a Caco-2 permeability assay is as follows:
• The Caco-2 monolayer is widely used across the pharmaceutical industry as an in vitro model of the human small intestinal mucosa to predict the absorption of orally administered drugs.^1-4 • The Caco-2 cell model mimics processes such as transcellular transport, paracellular transport, and some aspects of efflux and active transport. • Readout: Papp (A→B), Papp (B→A), Efflux ratio, % Recovery • Controls: with and without Pgp inhibitor; Atenolol, Propanolol, Taxel-1
The Caco-2 cells are cultured to confluency, trypsinized and seeded onto a filter transwell insert at a density of ^˜32,000 cells/well in DMEM cell culture medium. Cells are grown in a humidified atmosphere of 5% CO2 at 37° C. Following an overnight attachment period (24 h after seeding), the cell medium is replaced with fresh medium in both the apical and basolateral compartments every other day. The cell monolayers are used for transport studies 21 days post seeding after measuring the TEER values ([…]). The apical sides and basolateral sides are washed consecutively with HBSS 2.5% (v/v), HEPES (pH 7.4) or HBSS 2.5% (v/v), HEPES 10% (v/v), and Fetal Bovine Serum (pH 7.4) at 37° C. in an incubator under an atmosphere of 5% CO2.
Donor working solution is prepared by dilution of DMSO stock of test article or positive control with transport media to 10 μM.
For A→B directional transport, the donor working solution (with test article or positive control, with or without Pgp inhibitor) is added to the apical (A) compartment and the transport media as receiver working solution is added to the basolateral (B) compartment. For B→A directional transport, the donor working solution (with positive control or test article, with or without Pgp inhibitor) is added to the basolateral (B) compartment and transport media as receiver working solution is added to the apical (A) compartment.
The cells are incubated in a humidified atmosphere of 5% CO2 at 37° C. for 90 minutes.
At the end of the incubation, samples are taken from both donor and receiver compartments and transferred into 96-well assay plates containing internal standard solution (IS) in each well. After centrifugation, the supernatant solutions are transferred to clean 96 well plates and analyzed by LC-MS/MS. The MS detection is performed using a Sciex API 4000 instrument. Each compound is analyzed by reversed phase HPLC.
The parameters Papp (apparent permeability) and efflux ratio are calculated as follows:
Papp=(dQ/dt)×(1/C0)×(1/A)
Efflux ratio=Papp[B→A]/Papp[A→B]
where dQ/dt is the permeability rate, C0 is the initial concentration in the donor compartment, and A is the surface area of the cell monolayer (0.33 cm^2). The Papp value is a rate measured in cm/s. Calculated Papp is ranked as low (<[…]), moderate (1-10×10^−6 cm/s), and high (>[…]).
Comparing the efflux ratios generated in the presence and absence of a Pgp inhibitor identifies whether the test article is a Pgp substrate.
Recovery is calculated as follows:
% Recovery=(Total compound mass in donor and receiver compartments at the end of the incubation/Initial compound mass in the donor compartment)×100.

[2] = Stability in Simulated Gastric Fluid (SGF); type: in vitro ADME; design: key: % parent compound remaining relative to 0-minute sample
Procedure, shortened: (§1)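 Stability was tested at 37° C in pepsin-supplemented gastric fluid, pH 1.2, and pancreatin-supplemented intestinal fluid, pH 6.8, using 2 μg/mL final compound over 0–60 minutes. Remaining parent was quantified by LC-MS/MS and expressed as a percentage of time zero.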

[3] = Stability in Simulated Intestinal Fluid (SIF); type: in vitro ADME; design: key: % parent compound remaining relative to 0-minute sample
Procedure, shortened: as §1

[4] = Plasma Stability; type: in vitro ADME, human
Procedure, shortened: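 Compounds incubated at 1 μM in fresh human plasma for 1 hour at 37° C, then protein-precipitated with acetonitrile/formic acid containing internal standard. Remaining parent measured by LC-MS/MS in triplicate, expressed as percent of control remaining.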

[5] = Caco-2, pH 7.4, Caco-2 monolayer
[6] = % remaining at 1 h in simulated gastric fluid
[7] = % remaining at 1 h in simulated intestinal fluid
[8] = % remaining at 1 h in human plasma

| SMILES | Papp at 90 min, 10 µM [1, 5] [×10⁻⁶ cm/s] | SGF [2, 6] | SIF [3, 7] [% remaining] | human Plasma stability [4, 8] | Papp at 90 min, 10 µM ([1]; Caco-2, pH 7.4, no unit printed at the place (tables the 9th table and the 10th table have no head)) [×10⁻⁶ cm/s] | SGF ([2]; % remaining at 1 h, SGF with pepsin pH 1.2, 2 μg/mL, 37° C.) [%] | SIF ([3]; % remaining at 1 h, SIF with pancreatin pH 6.8, 2 μg/mL, 37° C.) [%] | human Plasma stability ([4]; % remaining at 1 h, human plasma, 1 μM, 37° C.) [%] |
| --- | --- | --- | --- | --- | --- | --- | --- | --- |
| CC(C)OCCn1c(=S)[nH]c(=O)c2c1ccn2COC(=O)CCCCNC(=O)[C@H](Cc1c[nH]c2ccccc12)NC(=O)OC(C)(C)C.O=C(O)C(F)(F)F [Example 47] | 9.15 | 99% remaining | 46 | 78% remaining | – | – | – | – |
| CC(C)OCCn1c(=S)[nH]c(=O)c2c1ccn2COC(=O)CCNC(=O)[C@H](Cc1c[nH]c2ccccc12)NC(=O)OC(C)(C)C.O=C(O)C(F)(F)F [Example 48] | 5.93 | 90% remaining | 89 | 74% remaining | – | – | – | – |
| CC(C)OCCn1c(=S)[nH]c(=O)c2c1ccn2COC(=O)CCCCNC(=O)[C@@H](N)Cc1ccc(O)cc1.O=C(O)C(F)(F)F [Example 49] | 0.154 | 99% remaining | 92 | 1% remaining | – | – | – | – |
| CC(C)OCCn1c(=S)[nH]c(=O)c2c1ccn2COC(=O)CCNC(=O)[C@@H](N)Cc1ccc(O)cc1.O=C(O)C(F)(F)F [Example 50] | 0.215 | 99% remaining | 75 | 25% remaining | – | – | – | – |
| CC(C)OCCn1c(=S)[nH]c(=O)c2c1ccn2COC(=O)CCCCNC(=O)[C@@H](N)Cc1c[nH]c2ccccc12.O=C(O)C(F)(F)F [Example 51] | 0.519 | 94% remaining | 83 | 2% remaining | – | – | – | – |
| CC(C)OCCn1c(=S)[nH]c(=O)c2c1ccn2COC(=O)CCNC(=O)[C@@H](N)Cc1c[nH]c2ccccc12.O=C(O)C(F)(F)F [Example 52] | 0.23 | 95% remaining | 81 | 61% remaining | – | – | – | – |
| CC(C)OCCn1c(=S)[nH]c(=O)c2c1ccn2COC(=O)CCCCNC(=O)CN(C)C(=O)OC(C)(C)C.O=C(O)C(F)(F)F [Example 53] | 3.43 | 92% remaining | 98 | 0% remaining | – | – | – | – |
| CC(C)OCCn1c(=S)[nH]c(=O)c2c1ccn2COC(=O)CCNC(=O)CN(C)C(=O)OC(C)(C)C.O=C(O)C(F)(F)F [Example 54] | 3.14 | 93% remaining | 87 | 74% remaining | – | – | – | – |
| CNCC(=O)NCCCCC(=O)OCn1ccc2c1c(=O)[nH]c(=S)n2CCOC(C)C.O=C(O)C(F)(F)F [Example 55] | 0.244 | 100% | 98 | 1% remaining | – | – | – | – |
| CNCC(=O)NCCC(=O)OCn1ccc2c1c(=O)[nH]c(=S)n2CCOC(C)C.O=C(O)C(F)(F)F [Example 56] | 0.144 | 64% remaining | 1 | 0% remaining | – | – | – | – |
| CC(C)OCCn1c(=S)[nH]c(=O)c2c1ccn2COC(=O)CCCCNC(=O)CN(C)C(=O)CNC(=O)OC(C)(C)C.O=C(O)C(F)(F)F [Example 57] | 0.28 | 81% remaining | 96 | 0% remaining | – | – | – | – |
| CC(C)OCCn1c(=S)[nH]c(=O)c2c1ccn2COC(=O)CCNC(=O)CN(C)C(=O)CNC(=O)OC(C)(C)C.O=C(O)C(F)(F)F [Example 58] | 0.287 | 77% remaining | 84 | 49% remaining | – | – | – | – |
| CC(C)OCCn1c(=S)[nH]c(=O)c2c1ccn2COC(=O)CCCCNC(=O)CN(C)C(=O)CN.O=C(O)C(F)(F)F [Example 59] | < 0.254 | 95% remaining | 98 | 11% remaining | – | – | – | – |
| COC(=O)N1CCCC1C(=O)NCCC(=O)OCn1ccc2c1c(=O)[nH]c(=S)n2CCOC(C)C.O=C(O)C(F)(F)F (centres unmarked) [Example 60] | 0.611 | 99% remaining | 88 | 37% remaining | – | – | – | – |
| COC(=O)N1CCCC1C(=O)NCCCCC(=O)OCn1ccc2c1c(=O)[nH]c(=S)n2CCOC(C)C.O=C(O)C(F)(F)F (centres unmarked) [Example 61] | 0.971 | 98% remaining | 92 | 0% remaining | – | – | – | – |
| CC(C)OCCn1c(=S)[nH]c(=O)c2c1ccn2COC(=O)CCNC(=O)[C@@H]1CCCN1C(N)=O.O=C(O)C(F)(F)F [Example 62] | 0.162 | 99% remaining | 99 | 91% remaining | – | – | – | – |
| CC(C)OCCn1c(=S)[nH]c(=O)c2c1ccn2COC(=O)CCCCNC(=O)[C@@H]1CCC(=O)N1C.O=C(O)C(F)(F)F [Example 63] | 0.2 | 97% remaining | 98 | 0% remaining | – | – | – | – |
| CC(C)OCCn1c(=S)[nH]c(=O)c2c1ccn2COC(=O)CCNC(=O)[C@@H]1CCC(=O)N1C.O=C(O)C(F)(F)F [Example 64] | < 0.19 | 98% remaining | 97 | 76% remaining | – | – | – | – |
| CCOC(=O)N1CCCC1C(=O)NCCCCC(=O)OCn1ccc2c1c(=O)[nH]c(=S)n2CCOC(C)C.O=C(O)C(F)(F)F (centres unmarked) [Example 65] | 1.86 | 87% remaining | 89 | 20% remaining | – | – | – | – |
| CCOC(=O)N1CCCC1C(=O)NCCC(=O)OCn1ccc2c1c(=O)[nH]c(=S)n2CCOC(C)C.O=C(O)C(F)(F)F (centres unmarked) [Example 66] | 0.736 | 96% remaining | 80 | 75% remaining | – | – | – | – |
| CC(C)OCCn1c(=S)[nH]c(=O)c2c1ccn2COC(=O)CCCCNC(=O)C1CCCN1C(=O)OC(C)C.O=C(O)C(F)(F)F (centres unmarked) [Example 67] | 2.84 | 92% remaining | 93 | 57% remaining | – | – | – | – |
| CC(C)OCCn1c(=S)[nH]c(=O)c2c1ccn2COC(=O)CCNC(=O)C1CCCN1C(=O)OC(C)C.O=C(O)C(F)(F)F (centres unmarked) [Example 68] | 2.26 | 76% remaining | 69 | 100% | – | – | – | – |
| CC(C)OCCn1c(=S)n(COCC[Si](C)(C)C)c(=O)c2[nH]ccc21 [Example 70, 1-[2-(Propan-2-yloxy)ethyl]-2-sulfanylidene-3-{[2-(trimethylsilyl)ethoxy]methyl}-1H,2H,3H,4H,5H-pyrrolo[3,2-d]pyrimidin-4-one] | – | – | – | – | 23.2 | 96 | 99 | 99 |
